Legend:
[1] = Cytotoxicity against human HL-60(TB) cells assessed as growth inhibition after 48 hrs by SRB assay; type: functional; conditions: HL-60, 48 h; for CC50: read-out: LD50 (the source's name)
[2] = Cytotoxicity against human K562 cells assessed as growth inhibition after 48 hrs by SRB assay; type: functional; conditions: K562, 48 h; for CC50: read-out: LD50 (the source's name)
[3] = Cytotoxicity against human RPMI8226 cells assessed as growth inhibition after 48 hrs by SRB assay; type: functional; conditions: RPMI-8226, 48 h; for CC50: read-out: LD50 (the source's name)
[4] = Cytotoxicity against human SR cells assessed as growth inhibition after 48 hrs by SRB assay; type: functional; conditions: for CC50: read-out: LD50 (the source's name)
[5] = Cytotoxicity against human HOP62 cells assessed as growth inhibition after 48 hrs by SRB assay; type: functional; conditions: HOP-62, 48 h; for CC50: read-out: LD50 (the source's name)
[6] = Cytotoxicity against human HT-29 cells assessed as growth inhibition after 48 hrs by SRB assay; type: functional; conditions: HT-29, 48 h; for CC50: read-out: LD50 (the source's name)
[7] = Cytotoxicity against human SNB19 cells assessed as growth inhibition after 48 hrs by SRB assay; type: functional; conditions: SNB-19, 48 h; for CC50: read-out: LD50 (the source's name)
[8] = Cytotoxicity against human SNB75 cells assessed as growth inhibition after 48 hrs by SRB assay; type: functional; conditions: SNB-75, 48 h; for CC50: read-out: LD50 (the source's name)
[9] = Cytotoxicity against human MDA-MB-435 cells assessed as growth inhibition after 48 hrs by SRB assay; type: functional; conditions: MDA-MB-435, 48 h; for CC50: read-out: LD50 (the source's name)
[10] = Cytotoxicity against human SK-MEL-28 cells assessed as growth inhibition after 48 hrs by SRB assay; type: functional; conditions: SK-MEL-28, 48 h; for CC50: read-out: LD50 (the source's name)
[11] = Cytotoxicity against human SK-MEL-5 cells assessed as growth inhibition after 48 hrs by SRB assay; type: functional; conditions: SK-MEL-5, 48 h; for CC50: read-out: LD50 (the source's name)
[12] = Cytotoxicity against human 786-0 cells assessed as growth inhibition after 48 hrs by SRB assay; type: functional; conditions: 786-0, 48 h; for CC50: read-out: LD50 (the source's name)
[13] = Cytotoxicity against human ACHN cells assessed as growth inhibition after 48 hrs by SRB assay; type: functional; conditions: for CC50: read-out: LD50 (the source's name)
[14] = Cytotoxicity against human RXF393 cells assessed as growth inhibition after 48 hrs by SRB assay; type: functional; conditions: RXF 393, 48 h; for CC50: read-out: LD50 (the source's name)
[15] = Cytotoxicity against human SN12C cells assessed as growth inhibition after 48 hrs by SRB assay; type: functional; conditions: for CC50: read-out: LD50 (the source's name)
[16] = Cytotoxicity against human PC3 cells assessed as growth inhibition after 48 hrs by SRB assay; type: functional; conditions: PC-3, 48 h; for CC50: read-out: LD50 (the source's name)
[17] = Cytotoxicity against human EKVX cells assessed as assessed as growth inhibition at 10^-5 M after 48 hrs by SRB assay relative to control; type: functional; conditions: read-out: GI
[18] = Cytotoxicity against human NCI-H226 cells assessed as assessed as growth inhibition at 10^-5 M after 48 hrs by SRB assay relative to control; type: functional; conditions: NCI-H226, 48 h, read-out: GI
[19] = Cytotoxicity against human SF268 cells assessed as assessed as growth inhibition at 10^-5 M after 48 hrs by SRB assay relative to control; type: functional; conditions: SF-268, 48 h, read-out: GI
[20] = Cytotoxicity against human M14 cells assessed as assessed as growth inhibition at 10^-5 M after 48 hrs by SRB assay relative to control; type: functional; conditions: M14, 48 h, read-out: GI
[21] = Cytotoxicity against human MDA-MB-435 cells assessed as assessed as growth inhibition at 10^-5 M after 48 hrs by SRB assay relative to control; type: functional; conditions: MDA-MB-435, 48 h, read-out: GI
[22] = Cytotoxicity against human SK-MEL-28 cells assessed as assessed as growth inhibition at 10^-5 M after 48 hrs by SRB assay relative to control; type: functional; conditions: SK-MEL-28, 48 h, read-out: GI
[23] = Cytotoxicity against human OVCAR3 cells assessed as assessed as growth inhibition at 10^-5 M after 48 hrs by SRB assay relative to control; type: functional; conditions: OVCAR-3, 48 h, read-out: GI
[24] = Cytotoxicity against human SKOV3 cells assessed as assessed as growth inhibition at 10^-5 M after 48 hrs by SRB assay relative to control; type: functional; conditions: SK-OV-3, 48 h, read-out: GI
[25] = Cytotoxicity against human 786-0 cells assessed as assessed as growth inhibition at 10^-5 M after 48 hrs by SRB assay relative to control; type: functional; conditions: 786-0, 48 h, read-out: GI
[26] = Cytotoxicity against human A498 cells assessed as assessed as growth inhibition at 10^-5 M after 48 hrs by SRB assay relative to control; type: functional; conditions: A498, 48 h, read-out: GI
[27] = Cytotoxicity against human SN12C cells assessed as assessed as growth inhibition at 10^-5 M after 48 hrs by SRB assay relative to control; type: functional; conditions: read-out: GI
[28] = Cytotoxicity against human UO31 cells assessed as assessed as growth inhibition at 10^-5 M after 48 hrs by SRB assay relative to control; type: functional; conditions: UO-31, 48 h, read-out: GI
[29] = Cytotoxicity against human PC3 cells assessed as assessed as growth inhibition at 10^-5 M after 48 hrs by SRB assay relative to control; type: functional; conditions: PC-3, 48 h, read-out: GI
[30] = Cytotoxicity against human Hs 578T cells assessed as assessed as growth inhibition at 10^-5 M after 48 hrs by SRB assay relative to control; type: functional; conditions: read-out: GI
[31] = Cytotoxicity against human T47D cells assessed as assessed as growth inhibition at 10^-5 M after 48 hrs by SRB assay relative to control; type: functional; conditions: read-out: GI
Mus musculus [32] = species on record: Mus musculus; experiment: Genotoxicity in mouse EAC cells at 250 uM after 24 hrs by micronucleus assay (reference value: 3.5 +/- 0.30%); type: toxicity, cell-based; conditions: ehrlich
Mus musculus [33] = species on record: Mus musculus; experiment: Genotoxicity in mouse EAC cells at 500 uM after 24 hrs by micronucleus assay (reference value: 3.5 +/- 0.30%); type: toxicity, cell-based; conditions: ehrlich
[34] = Induction of apoptosis in mouse EAC cells at 125 uM after 24 hrs by acridine orange dye-based fluorescence microscopy (reference value: 0.66 +/- 0.33%); type: cell-based; conditions: ehrlich
[35] = Induction of apoptosis in mouse EAC cells at 250 uM after 24 hrs by acridine orange dye-based fluorescence microscopy (reference value: 0.66 +/- 0.33%); type: cell-based; conditions: ehrlich

O=C1Cc2cc(CCn3cncn3)c(Cl)cc2N1
GI50 [1]: 1000 nM
TGI [1]: > 1000 nM
CC50 [1]: > 1000 nM
GI50 [2]: 7680 nM
TGI [2]: > 1000 nM
CC50 [2]: > 1000 nM
GI50 [3]: 1000 nM
TGI [3]: > 1000 nM
CC50 [3]: > 1000 nM
GI50 [4]: 1000 nM
TGI [4]: > 1000 nM
CC50 [4]: > 1000 nM
GI50 [5]: 2990 nM
TGI [5]: > 1000 nM
CC50 [5]: > 1000 nM
GI50 [6]: 1000 nM
TGI [6]: > 1000 nM
CC50 [6]: > 1000 nM
GI50 [7]: 7070 nM
TGI [7]: > 1000 nM
CC50 [7]: > 1000 nM
GI50 [8]: 1320 nM
TGI [8]: > 1000 nM
CC50 [8]: > 1000 nM
GI50 [9]: 3220 nM
TGI [9]: > 1000 nM
CC50 [9]: > 1000 nM
GI50 [10]: 2100 nM
TGI [10]: > 1000 nM
CC50 [10]: > 1000 nM
GI50 [11]: 1010 nM
TGI [11]: > 1000 nM
CC50 [11]: > 1000 nM
GI50 [12]: 1000 nM
TGI [12]: > 1000 nM
CC50 [12]: > 1000 nM
GI50 [13]: 1000 nM
TGI [13]: > 1000 nM
CC50 [13]: > 1000 nM
GI50 [14]: 7480 nM
TGI [14]: > 1000 nM
CC50 [14]: > 1000 nM
GI50 [15]: 1000 nM
TGI [15]: > 1000 nM
CC50 [15]: > 1000 nM
GI50 [16]: 1000 nM
TGI [16]: > 1000 nM
CC50 [16]: > 1000 nM
inhibition of growth at 10 µM [17]: 70.5%
inhibition of growth at 10 µM [18]: 25.2%
inhibition of growth at 10 µM [19]: -10.2%
inhibition of growth at 10 µM [20]: 76%
inhibition of growth at 10 µM [21]: 65.6%
inhibition of growth at 10 µM [22]: 32.8%
inhibition of growth at 10 µM [23]: 28.3%
inhibition of growth at 10 µM [24]: 20.7%
inhibition of growth at 10 µM [25]: 5.34%
inhibition of growth at 10 µM [26]: 52.9%
inhibition of growth at 10 µM [27]: 44.2%
inhibition of growth at 10 µM [28]: 34%
inhibition of growth at 10 µM [29]: 13.6%
inhibition of growth at 10 µM [30]: 71.4%
inhibition of growth at 10 µM [31]: 0.92%
Activity (Mus musculus [32]): 3.5%
Activity (Mus musculus [33]): 5.23%
Activity [34]: 0.6%
Activity [35]: 0.63%

O=C1Cc2cc(CCn3ccnc3)c(Cl)cc2N1
GI50 [1]: 6320 nM
TGI [1]: > 1000 nM
CC50 [1]: > 1000 nM
GI50 [2]: 8260 nM
TGI [2]: > 1000 nM
CC50 [2]: > 1000 nM
GI50 [3]: 4610 nM
TGI [3]: > 1000 nM
CC50 [3]: > 1000 nM
GI50 [4]: 9240 nM
TGI [4]: > 1000 nM
CC50 [4]: > 1000 nM
GI50 [5]: 3320 nM
TGI [5]: > 1000 nM
CC50 [5]: > 1000 nM
GI50 [6]: 1000 nM
TGI [6]: > 1000 nM
CC50 [6]: > 1000 nM
GI50 [7]: 2210 nM
TGI [7]: > 1000 nM
CC50 [7]: > 1000 nM
GI50 [8]: 2160 nM
TGI [8]: > 1000 nM
CC50 [8]: > 1000 nM
CC50 [9]: > 1000 nM
GI50 [10]: 2970 nM
TGI [10]: > 1000 nM
CC50 [10]: > 1000 nM
GI50 [11]: 8120 nM
TGI [11]: > 1000 nM
CC50 [11]: > 1000 nM
GI50 [12]: 1000 nM
TGI [12]: > 1000 nM
CC50 [12]: > 1000 nM
GI50 [13]: 2030 nM
TGI [13]: > 1000 nM
CC50 [13]: > 1000 nM
GI50 [14]: 6280 nM
TGI [14]: > 1000 nM
CC50 [14]: > 1000 nM
GI50 [15]: 1650 nM
TGI [15]: > 1000 nM
CC50 [15]: > 1000 nM
GI50 [16]: 3560 nM
TGI [16]: > 1000 nM
CC50 [16]: > 1000 nM
inhibition of growth at 10 µM [17]: 72.7%
inhibition of growth at 10 µM [18]: 10.7%
inhibition of growth at 10 µM [19]: 27.6%
inhibition of growth at 10 µM [20]: 76.3%
inhibition of growth at 10 µM [21]: 72%
inhibition of growth at 10 µM [22]: 32.2%
inhibition of growth at 10 µM [23]: 36.5%
inhibition of growth at 10 µM [24]: 21.4%
inhibition of growth at 10 µM [25]: 10.6%
inhibition of growth at 10 µM [26]: 32.2%
inhibition of growth at 10 µM [27]: 48.8%
inhibition of growth at 10 µM [28]: 39.3%
inhibition of growth at 10 µM [29]: 11.7%
inhibition of growth at 10 µM [30]: 68.9%
inhibition of growth at 10 µM [31]: 5.51%
Activity (Mus musculus [32]): 2.83%
Activity (Mus musculus [33]): 4.83%
Activity [34]: 0.33%
Activity [35]: 0.5%
